Laboratory results taken from article PMC6270570, “New Flurbiprofen Derivatives: Synthesis, Membrane Affinity and Evaluation of in Vitro Effect on β-Amyloid Levels” (Molecules, 2013).
Where two headings read alike, the source gives them in different places. Marks after values point to notes of the source that are not given here.

Assays:
Aβ-42 = assay: Western blotting of Aβ-42 expression in CTXTNA2 astrocytes (in vitro γ-secretase activity); type: cell-based, rat; details: 24 h; for Aβ-42 production, effect in words: 1 µM to 100 µM, without affecting the APP level
Experimental: CTXTNA2 cell line, established from primary cultures of type 1 astrocytes from brain frontal cortex tissue of 1 day old rats, was obtained by ECACC (Salisbury, UK). Cells have been maintained in DMEM, 10% FBS at 37 °C, 5% CO2 until sub-confluence and incubated for 24 h with a DMSO solution of drug (concentrations ranging from 1 µM to 100 µM). For detection of cell viability, a Trypan blue dye exclusion test has been performed.
Cell lysates (20 µg) have been electrophoresed and transferred to nitrocellulose membrane. Nitrocellulose membranes, blocked in 5% non-fat milk, 10 mmol/L Tris pH 7.5, 100 mmol/L NaCl, 0.1% Tween-20, have been probed with mouse APP (Millipore, Billerica, MA, USA) and Aβ (Alpha Diagnostic Intl, San Antonio, TX, USA) monoclonal antibodies (Santa Cruz Biotechnology, Santa Cruz, CA, USA), then incubated in the presence of specific enzyme conjugated IgG horseradish peroxidase. Immunoreactive bands have been detected by ECL detection system (Amersham Intl., Buckinghamshire, UK) and analysed by densitometry. Densitometric values, expressed as Integrated Optical Intensity (I.O.I.), have been estimated in a CHEMIDOC XRS system by the QuantiOne 1-D analysis software (BioRad, Richmond, CA, USA). Values obtained have been normalized basing on densitometric values of internal β tubulin. Statistical analysis has been performed using the analysis of variance (ANOVA). Results have been expressed as mean ± SD. Values of p < 0.05 have been considered statistically significant.

[1] = PAMPA-GI permeability (egg lecithin in dodecane); type: in vitro ADME; details: read-out: PAMPA-GI Pe
Experimental: (§1) The following protocol was applied to measure the Pe through the artificial membrane to predict oral absorption and BBB permeation. In order to study the g.i. permeability, a 2% solution (w/v) of egg lecithin (phosphatidyl choline > 98%, PC) in dodecane was employed as an artificial membrane solution. The effective permeability of BBB was measured using phospholipid mixture from porcine polar brain lipid extract, composed by PC 12.6%, phosphatidylethanolamine (PE) 33.1%, phosphatidylserine (PS) 18.5%, phosphatidylinositol (PI) 4.1%, phospatidic acid (PA) 0.8% and 30.9% of other compounds (purchased from Avantis Polar Lipids, Alabaster, AL, USA). Each donor filtration plate well was then impregnated with 5 µL of this solution carefully, and immediately after 150 µL of phosphate buffer (pH 7.4/pH 6.5), containing co-drug 1 500 µM and iPrOH 20% as co-solvent was added. Then the drug-filled donor plate was placed into the acceptor plate that had been prefilled with the same buffer (300 µL) as acceptor solution. After plate lid was replaced, the resulting assembled donor-acceptor plates were incubated at r.t. for 2 h for PAMPA-GI and 18 h for PAMPA-BBB, following which drugs concentration in the acceptor and donor solutions were determined by HPLC [37].
(§2) Log Pe can be calculated from the equation below: [drawing 10] (2) where Pe is the effective permeability coefficient (cm x s^−1), VD is volume of donor compartment (0.15 cm^3) and VA is volume of acceptor compartment (0.30 cm^3), A is effective filter area (0.28 cm^2), t is incubation time for the assay (s), Cacceptor is the concentration of the compound in the acceptor compartment at the completion of the assay, and Cequilibrium is the concentration of compound at theoretical equilibrium.

[2] = IAM-HPLC affinity for membrane phospholipids (logKIAM/W); type: physicochemical; details: IAM.PC.MG column, pH 7.0 phosphate buffer/acetonitrile, extrapolated to 100% aqueous eluent
Experimental: n-Octanol/water partition coefficients were theoretically calculated by the program clogP for windows version 2.0 (Biobyte Corp., Claremont, CA, USA). Affinity for membrane phospholipids, so called “phospholipophilicity”, was measured by HPLC on a phospholipid stationary phase. […] liquid chromatograph (Waters-Millipore, Milford, MA, USA), equipped with a 7125 Rheodyne injection valve and a 486 UV detector (Waters) set at 246 nm, was used. The column was an IAM.PC.MG (Immobilized Artificial Membrane-PhosphatidylCholine-MethylGlycolate) (4.6 mm × 150 mm) (Regis Chemical Company, Morton Grove, IL, USA). The mobile phase was 0.01 M phosphate buffer at pH 7.0 and acetonitrile at percentages ranging from 10 to 35 percent (v/v) (from 1.0 to 4.0 mL/min). The chromatography was carried out at room temperature. All samples were dissolved in methanol (ca. 10^-3 M) and 20 μL samples were injected in the chromatograph. Chromatographic retention data are expressed as the logarithm of the capacity factor, log k, defined as: log k = log [(tr - t0)/t0] (1) where tr and t0 are the retention times of the drug and a non-retained compound (citric acid), respectively. The log k values relative to 100% aqueous eluent (logKIAM/W) were calculated by performing a polycratic method of extrapolation. Each compound was eluted with at least three different mobile phases containing acetonitrile in different percentages (φ). […] All values of log k reported are the average of at least three measurements; the 95% confidence interval never exceeded 0.04 for each log k value. Possible occurrence of retention changes due to column aging was monitored by checking the retention times of five test compounds (amlodipine, p-nitroaniline, toluene, isradipine, and ketoprofen).

APP = details: 24 h
Experimental: For detection of cell viability, a Trypan blue dye exclusion test has been performed [33].
Cell lysates (20 µg) have been electrophoresed and transferred to nitrocellulose membrane. […] Immunoreactive bands have been detected by ECL detection system (Amersham Intl., Buckinghamshire, UK) and analysed by densitometry. Densitometric values, expressed as Integrated Optical Intensity (I.O.I.), have been estimated in a CHEMIDOC XRS system by the QuantiOne 1-D analysis software (BioRad, Richmond, CA, USA). Values obtained have been normalized basing on densitometric values of internal β tubulin. Statistical analysis has been performed using the analysis of variance (ANOVA). Results have been expressed as mean ± SD. Values of p < 0.05 have been considered statistically significant.

[3] = PAMPA-BBB permeability (porcine polar brain lipid extract); type: in vitro ADME; details: for Papp at 18 h, 500 µM: PAMPA
Experimental: as §1, §2

[4] = RP-HPLC retention factor extrapolated to 100% water (KC18/W); type: physicochemical; details: for KC18/W (retention factor extrapolated to 100% water): RP-HPLC, acetonitrile/water mixtures; for chromatographic logP: by comparison with KC18/W and logP of nisoldipine and lacidipine, read-out: logP calculated from KC18/W
Experimental: Similarly, due to their high lipophilicity, experimental n-octanol/water lipophilicity values of enantiomers 8/9 were determined by RP-HPLC because their characterization through the “classical” shake-flask method was expected to be difficult and scarcely reproducible. The retention factor, determined in acetonitrile/water mixtures and extrapolated to 100% water (KC18/W) for enantiomers 8/9 was 3.94 (data not shown).

[5] = design: method as in doi:10.1016/0223-5234(96)80368-0; details: n-octanol/water; cited from earlier work
[6] = pH 7.4, 18 h of incubation, read-out: PAMPA-BBB Pe

| SMILES | Expression of Aβ-42 (Aβ-42; 1 µM) | Expression of Aβ-42 (Aβ-42; 10 µM) | Expression of Aβ-42 (Aβ-42; 100 µM) | Papp at 2 h, 500 µM ([1]; pH 6.5, 2 h of incubation) | Papp at 2 h, 500 µM ([1]; pH 7.4, 2 h of incubation) | LogKIAM/W [2] | melting point | Expression of APP (APP; 1 µM) | Expression of APP (APP; 10 µM) | Expression of APP (APP; 100 µM) | Papp at 18 h, 500 µM [3, 6] | Aβ-42 production, effect in words (Aβ-42) | PAMPA-BBB Pe ([3]; pH 7.4, 18 h of incubation) | Papp at 18 h, 500 µM ([3]; read-out: Pe, BBB penetration) | KC18/W (retention factor extrapolated to 100% water) [4] | chromatographic logP [4] | logP (experimentally determined values) [5] |
| --- | --- | --- | --- | --- | --- | --- | --- | --- | --- | --- | --- | --- | --- | --- | --- | --- | --- |
| C[C@H](NC(=O)[C@H](C)c1ccc(-c2ccccc2)c(F)c1)C(=O)N[C@H](C(=O)OC(C)(C)C)c1ccccc1 [Compound 1, tert-Butyl (2S)-({N-[(2R)-2-(2-fluoro-1,1'-biphenyl-4-yl)propanoyl]-L-alanyl}amino)(phenyl)acetate] | (29.2 ± 1.2) × 10^−2 | (43.5 ± 1.6) × 10^−2 | (45.8. ± 1.3) × 10^−2 | 3.7 ×10⁻⁶ cm/s | 4.8 ×10⁻⁶ cm/s | 3.67 | 105 to 107 °C | (93.1 ± 3.8) × 10^−2 | (89.4 ± 3.2) × 10^−2 | (120 ± 3.2) × 10^−2 | 2.4 ×10⁻⁶ cm/s |  |  |  |  |  |  |
| C[C@H](NC(=O)[C@@H](C)c1ccc(-c2ccccc2)c(F)c1)C(=O)N[C@H](C(=O)OC(C)(C)C)c1ccccc1 [Compound 2, tert-Butyl(2S)-({N-[(2S)-2-(2-fluoro-1,1'-biphenyl-4-yl)propanoyl]-L-alanyl}amino)(phenyl)acetate] | (20.0 ± 1.1) × 10^−2 | (12.1 ± 0.6) × 10^−2 | (8.4 ± 0.2) × 10^−2 | 3.6 ×10⁻⁶ cm/s | 4.1 ×10⁻⁶ cm/s | 3.80 | 106 to 108 °C | (93.1 ± 2.6) × 10^−2 | (93.3 ± 3.5) × 10^−2 | (63.6 ± 2.8) × 10^−2 | 2.1 ×10⁻⁶ cm/s | highly effective |  |  |  |  |  |
| C[C@H](NC(=O)Cc1ccc(-c2ccccc2)c(F)c1)C(=O)N[C@H](C(=O)OC(C)(C)C)c1ccccc1 [Compound 3, tert-butyl (2S)-({N-[(2-fluoro-1,1'-biphenyl-4-yl)acetyl]-L-alanyl}amino)(phenyl)acetate] | (8.8. ± 0.4) × 10^−2 | (10.5 ± 0.4) × 10^−2 | (45.8. ± 1.3) × 10^−2 | 2.1 ×10⁻⁶ cm/s | 2 ×10⁻⁶ cm/s | 3.64 | 104 to 106 °C | (64.1 ± 2.3) × 10^−2 | (72.2 ± 2.1) × 10^−2 | (105 ± 3.2) × 10^−2 |  |  | 2.0 10^−6 cm/s |  |  |  |  |
| C[C@@H](C(=O)N[C@H]1C(=O)N(C)c2ccccc2-c2ccccc21)c1ccc(-c2ccccc2)c(F)c1 [Compound 4, (2R)-2-(2-Fluoro-1,1'-biphenyl-4-yl)-N-[(7R)-5-methyl-6-oxo-6,7-dihydro-5H-dibenzo[b,d]azepin-7-yl]propanamide] | (11.0 ± 0.4) × 10^−2 | (12.1 ± 0.4) × 10^−2 | (16.2 ± 0.7) × 10^−2 |  |  | 3.21 | 100 to 103 °C | (51.3 ± 2.6) × 10^−2 | (39.9 ± 1.6) × 10^−2 | (60.1 ± 2.7) × 10^−2 |  |  |  | ≥ 4 ×10⁻⁶ cm/s |  |  |  |
| C[C@H](C(=O)N[C@@H]1C(=O)N(C)c2ccccc2-c2ccccc21)c1ccc(-c2ccccc2)c(F)c1 [Compound 7, (2S)-2-(2-Fluoro-1,1'-biphenyl-4-yl)-N-[(7S)-5-methyl-6-oxo-6,7-dihydro-5H-dibenzo[b,d]azepin-7-yl]propanamide] | (12.4. ± 0.1) × 10^−2 | (11.1 ± 0.3) × 10^−2 | (9.2 ± 0.3) × 10^−2 |  |  | 3.21 | 102 to 104 °C | (9.0 ± 0.3) × 10^−2 | (8.0 ± 0.3) × 10^−2 | (10.1 ± 3.2) × 10^−2 |  | highly effective |  | ≥ 4 ×10⁻⁶ cm/s |  |  |  |
| CN1C(=O)[C@H](NC(=O)Cc2ccc(-c3ccccc3)c(F)c2)c2ccccc2-c2ccccc21 [Compound 8, 2-(2-Fluoro-1,1'-biphenyl-4-yl)-N-[(7R)-5-methyl-6-oxo-6,7-dihydro-5H-dibenzo[b,d]azepin-7-yl]-acetamide] | (31.1 ± 0.9) × 10^−2 | (25.0 ± 1.0) × 10^−2 | (35.2 ± 1.1) × 10^−2 | 2.5 ×10⁻⁶ cm/s | 2.6 ×10⁻⁶ cm/s | 3.58 | 96 to 100 °C | (82.3 ± 3.2) × 10^−2 | (68.1 ± 3.2) × 10^−2 | (94.4 ± 4.2) × 10^−2 | 2.3 ×10⁻⁶ cm/s |  |  |  | 3.94 | 5.49 |  |
| CN1C(=O)[C@@H](NC(=O)Cc2ccc(-c3ccccc3)c(F)c2)c2ccccc2-c2ccccc21 [Compound 9, 2-(2-Fluoro-1,1'-biphenyl-4-yl)-N-[(7S)-5-methyl-6-oxo-6,7-dihydro-5H-dibenzo[b,d]azepin-7-yl]-acetamide] | (43.2 ± 2.1) × 10^−2 | (38.4 ± 1.0) × 10^−2 | (14.0 ± 0.5) × 10^−2 | 2.5 ×10⁻⁶ cm/s | 2.6 ×10⁻⁶ cm/s | 3.58 | 96 to 100 °C | (68.7 ± 2.2) × 10^−2 | (69.2 ± 1.4) × 10^−2 | (94.3 ± 3.2) × 10^−2 | 2.3 ×10⁻⁶ cm/s |  |  |  | 3.94 | 5.49 |  |
| CCOC(=O)C1=C(C)NC(C)=C(C(=O)OCC)C1c1ccccc1/C=C/C(=O)OC(C)(C)C [Lacidipine, reference compound] |  |  |  |  |  | 3.52 |  |  |  |  |  |  |  |  | 4.01 |  | 5.56 ^a |
| COC(=O)C1=C(C)NC(C)=C(C(=O)OCC(C)C)C1c1ccccc1[N+](=O)[O-] (stereo not shown) [Nisoldipine, reference compound] |  |  |  |  |  | 2.63 |  |  |  |  |  |  |  |  | 2.99 |  | 4.53 ^a |
